The values below are quoted from earlier work in patent publication US8519110B2, “mRNA cap analogs” (Board of Supervisors of Louisiana State University And …, priority 2008, dated 2013).

The target of one data set is recombinant human Dcp2 (Homo sapiens, UniProt Q8IU60). The note with it: mRNAs capped with the analog; cited from earlier work.
The target in a further data set is eIF4E (Mus musculus, UniProt P63073). As to conditions: literature comparison; cited from earlier work.
Data set [1] concerns cultured mammalian cells. As to conditions: compared with ARCA-capped mRNA; cited from earlier work.
Data set [2] has as its system cultured mammalian cells. The note with it: compared with ARCA-capped (m2^7,3′-OGpppG) mRNA; cited from earlier work.

The structures appear in SMILES notation.

eIF4E, sequence (P63073 28-217 limits assumed): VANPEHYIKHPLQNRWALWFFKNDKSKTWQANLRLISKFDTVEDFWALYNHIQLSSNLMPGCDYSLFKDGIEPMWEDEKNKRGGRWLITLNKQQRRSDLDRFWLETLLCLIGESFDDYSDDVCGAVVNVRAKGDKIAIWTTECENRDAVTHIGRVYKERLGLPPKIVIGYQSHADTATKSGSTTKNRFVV

As to `CO[C@H]1[C@@H](O)[C@H](n2c[n+](C)c3c(=O)[nH]c(N)nc32)O[C@@H]1COP(=O)([O-])OP(=O)(O)CP(=O)(O)OC[C@H]1O[C@@H](n2cnc3c(=O)[nH]c(N)nc32)[C@H](O)[C@@H]1O` [m2^7,3′-OGppCH2pG], the “Hydrolysis of capped mRNA by recombinant human Dcp2 in vitro” value at recombinant human Dcp2 is reported as “resistant to hydrolysis”. In addition, the “Binding affinity for eIF4E” value at eIF4E is recorded as “lower binding affinity for eIF4E than that of m2^7,3′-OGpppG”. In addition, in the data set on cultured mammalian cells [1], the “Overall translational efficiency of capped mRNA in cells” value is given as “lower overall translational efficiency”. In addition, in the data set on cultured mammalian cells [2], the “Stability of capped mRNA in cultured cells” value was “more stable than those capped with m2^7,3′-OGpppG”.
